Results on 4 substances are retold here after US6699983B1, “Integrin-linked kinase and its uses” (Sunnybrook Health Sciences Centre, priority 1995, dated 2004).

Assay [1] concerns ILK. Briefly: ILK activation by insulin in IEC-18 cells (immune complex kinase assay, MBP substrate). The note with it: quiescent, serum-starved IEC-18 cells. In kind it is cell-based, rat. As to the method: Assessment of ILK activation by insulin on IEC-18 cells. IEC 18 cells are rat colon epithelial cells that are cultured routinely in α-MEM medium supplemented with insulin (10 mg/liter), glucose 3.6 g/liter, and 5% FCS. When IEC 18 cells are grown to 80% confluence, they are serum starved for 18 hours prior to activation by insulin. Before addition of insulin, media are removed and 4 ml of α-MEM+insulin 6 μM is added to the 100 mm dishes. P13 kinase inhibitors such as LY294002 at 50 μM or wortmannin at 200 nM are added optionally to block P13 kinase dependent ILK activation. At the designated times, dishes are washed 3× with ice cold PBS and cells are lysed in 500 μl lysis buffer: 150 mM NaCI, 1% NP-40, 0.5% sodium deoxycholate, 50 mM Hepes pH 7.5, 10 μg/ml leupeptin, 1 mM PMSF, 2.5 μl aprotinin/mi lysis buffer, NaF 5 mM, Sodium vanadate 1 mM. After assessment of protein concentration by Bradford assay, 500 μl samples containing 200 μg of proteins are incubated for 2 hrs at 4° C. with 20 μl of Protein A-Sepharose to preadsorb the non specific kinases. The lysate is then incubated overnight with 2 μg of rabbit anti ILK antiserum at 4° C. under rotation.
The immunocomplexes are then captured by incubating the lysate with 15 μl of Protein A Sepharose for 2 hrs at 4° C. […] Phosphorylation level of MBP is assessed by phosphorimager analysis or exposure to an X ray film.

Assay [2] addresses T1, ILK (Homo sapiens, UniProt Q13418).
T1 construct: GST
T1 sequence (Q13418 1-452): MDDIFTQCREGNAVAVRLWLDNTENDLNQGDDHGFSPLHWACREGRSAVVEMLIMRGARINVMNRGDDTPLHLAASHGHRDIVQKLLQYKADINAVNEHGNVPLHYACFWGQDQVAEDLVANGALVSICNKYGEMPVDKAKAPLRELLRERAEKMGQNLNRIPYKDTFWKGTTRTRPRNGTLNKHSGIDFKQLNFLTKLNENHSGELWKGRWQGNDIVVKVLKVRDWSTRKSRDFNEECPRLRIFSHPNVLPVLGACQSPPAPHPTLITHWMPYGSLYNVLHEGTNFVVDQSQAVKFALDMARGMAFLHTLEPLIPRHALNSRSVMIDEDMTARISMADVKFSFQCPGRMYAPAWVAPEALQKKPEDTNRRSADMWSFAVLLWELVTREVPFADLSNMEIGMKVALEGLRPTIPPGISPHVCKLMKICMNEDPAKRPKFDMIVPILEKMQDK
In words: Regulation of ILK kinase by phosphoinositides in vitro (ILK5-GST, MBP substrate). In kind it is biochemical. The conditions noted are these: lipid vesicles with phosphatidylserine and phosphatidylcholine, 30° C. As to the method: Assessment of regulation of ILK kinase by phosphoinositides. Ptdlns(3)P, Ptdins(3,4)P2 and Ptdlns(3,4,5)P3 were dried under nitrogen and resuspended at 0.1 mM in Hepes 10 mM, pH 7. 0 with phosphatidylserineand phosphatidylcholine, both at 1 mM. The lipid suspensions were vortexed and further sonicated for 20 min in order to generate unilamellar vesicles. 11 μl of ILK5-GST in kinase buffer were combined to 4 μl of lipids and 25 μl of kinase reaction solution containing 2.5 μl of MBP and 5 μCi of γ^32 P-ATP. The reaction proceeded for […] at 30° C. The reaction was stopped by adding an equal volume of 2× sample buffer. The samples were run on a 12% non reducing SDS-PAGE gel.

Turning to insulin, the “stimulation of ILK activity” value in the assay with ILK [1] was “rapidly stimulated”.

Consider “phosphatidylinositol (3,4,5) trisphosphate [Ptdlns(3,4,5)P3]”, for which the “ILK activity in vitro in the presence of phosphoinositide” value (“ILK activity in vitro in the presence” for short) on ILK [2] is recorded as “stimulated”.

Regarding “phosphatidylinositol(3) monophosphate [Ptdlns(3)P]”, at ILK [2], the “ILK activity in vitro in the presence” value is “not”. For “phosphatidylinositol(3,4) bisphosphate [Ptdlns(3,4)P2]”, the “ILK activity in vitro in the presence” value at ILK [2] was “not”.
